Assays:
KRAS G12D protein = molecular target: T1, KRAS G12D protein (Homo sapiens, UniProt P01116, G12D); assay: KRAS degradation activity by Cell ELISA in AsPC-1 (Test Example 1); assay type: cell-based; conditions: AsPC-1 cells, cultured overnight with compound, corrected with β-actin, read-out: DC50 (50% degradation concentration of the amounts of KRAS)
T1 construct: host or cells: AsPC-1
Procedure: Test Example 1: Evaluation of KRAS Degradation Activity on Human G12D Mutant KRAS-Positive Pancreatic Cancer Line AsPC-1 (CRL-1682; ATCC)
The KRAS degradation activity of test compounds was evaluated by measuring the expression levels of KRAS G12D protein by Cell ELISA.
AsPC-1 cells were seeded at 20 μL per well on 384-well plates (from Greiner bio-one) to give 2.0×10^4 cells per well. As for the cell culture conditions, RPMI 1640 (from Sigma-Aldrich) medium containing 10% fetal bovine serum (from Cytiva) was used in the presence of 5% CO2 at 37° C.
The next day, the test compounds (10 points having final concentrations in the range of 10 μM to 0.3 nM) and DMSO (from FUJIFILM Wako Pure Chemical Corporation), which was the solvent for the test compounds, as a negative control were diluted 500-fold with a fresh medium and were added at 20 μL per well. The cells were cultured overnight.
The next day, the culture supernatant was removed, and 4% paraformaldehyde phosphate buffer (from FUJIFILM Wako Pure Chemical Corporation) was added at 20 μL per well. The plates were allowed to stand for 30 minutes at room temperature to thus immobilize the cells. Then, the supernatant was removed, and 0.1% Triton X-100 (from Amersham Biosciences)-containing Phosphate buffered saline (PBS; from FUJIFILM Wako Pure Chemical Corporation) was added at 20 μL per well. After allowing to stand for 10 minutes at room temperature, the supernatant was removed. PBS was added at 25 μL per well, and the supernatant was removed to thus wash each well. The washing was performed twice in total. Next, the supernatant was removed, and 0.5% sodium dodecyl sulfate (SDS; from Invitrogen)-containing PBS was added at 20 μL per well. After allowing to stand at room temperature for 10 minutes, the supernatant was removed by a centrifugal operation (using a centrifugal dehydrator machine, the supernatant was removed by the same method hereinafter). PBS was added at 25 μL per well, and the supernatant was removed to thus wash each well. The washing was performed twice in total. The supernatant was removed, and blocking solution (Intercept Blocking Buffer; from Li-COR Biosciences) was added at 20 μL per well. After allowing to stand for 30 minutes at room temperature, the supernatant was removed, and a solution obtained by diluting anti-β-actin antibody (Anti-beta Actin antibody [mAbcam 8226]-Loading Control; from abcam) 1,000-fold with blocking solution and a solution obtained by diluting anti-Ras (G12D Mutant Specific) antibody (Ras (G12D Mutant Specific) (D8H7) Rabbit mAb #14429; from Cell Signaling Technology) and anti-β-actin antibody (from abcam) 1,000-fold with blocking solution were respectively added to positive control wells and the other wells at 20 μL per well as a primary antibody. The plate was allowed to stand overnight at 4° C.
The next day, the supernatant was removed. PBS was added at 25 μL per well, and the supernatant was removed to thus wash each well. The washing was performed twice in total. The supernatant was removed, and a solution obtained by diluting Donkey anti-Mouse IgG H&L (IRDye 680RD) (from Li-COR Biosciences) and Goat anti-Rabbit IgG H&L (IRDye 800CW) (from Li-COR Biosciences) 1,000-fold with blocking solution was added at 20 μL per well as a secondary antibody. After allowing to stand for 1 hour at room temperature, the supernatant was removed. PBS was added at 25 μL per well, and the supernatant was removed to thus wash each well. The washing was performed twice in total. After removing the supernatant, the plate was dried with air at room temperature for 2 hours or more, and the 700 nm and 800 nm fluorescent signals were measured with Aerius (from Li-COR Biosciences). […]

[1] = system: human G12D mutant KRAS-positive pancreatic cancer line AsPC-1; assay: Non-anchorage-dependent cell growth inhibition, spheroid 3D cell culture (Test Example 3); assay type: cell-based; conditions: Homo sapiens, ASPC1, 144 h, AsPC-1 spheroid 3D culture, 6 days, CellTiter Glo 2.0
Procedure: Test Example 3: Evaluation of Non-Anchorage-Dependent Cell Growth Inhibitory Effect on Human G12D Mutant KRAS-Positive Pancreatic Cancer Line AsPC-1
The non-anchorage-dependent cell growth inhibitory effect of test compounds was evaluated by spheroid 3D cell culture.
AsPC-1 cells were seeded on low-cell-adhesive round bottom 384-well plates (PrimeSurface: from Sumitomo Bakelite) at 36 μL/well to give 5×10^2 cells per well. As for the cell culture conditions, RPMI 1640 medium containing 10% fetal bovine serum was used in the presence of 5% CO2 at 37° C.
The next day, the test compounds (10 or 6 points having final concentrations in the range of 10 μM to 0.3 nM) and DMSO, which was the solvent for the test compounds, as a negative control were diluted 100-fold with a fresh medium and were added at 4 μL per well. After culturing in the presence of 5% CO2 at 37° C. for 6 days, CellTiter Glo 2.0 (from Promega) was added at 20 μL per well. After stirring with a plate mixer (from FINEPCR) at room temperature for 1 hour, the luminescent signals were measured with ARVO X3 (from PerkinElmer).
With the signaling value in treatment with DMSO taken as 100% and with the signaling value in the medium alone without cells taken as 0%, the 50% inhibitory concentration values (IC50) were calculated by Sigmoid-Emax nonlinear regression analysis.

[2] = system: phosphorylation of threonine 202 (Thr202) and tyrosine 204 (Tyr204) of ERK; assay: ERK phosphorylation inhibitory effect by Cell ELISA in AsPC-1 (Test Example 2); assay type: cell-based, human; conditions: Homo sapiens, ASPC1, AsPC-1 cells, cultured overnight with compound; 1 μM trametinib taken as 0%
Procedure: Test Example 2: Evaluation of ERK Phosphorylation Inhibitory Effect on Human G12D Mutant KRAS-Positive Pancreatic Cancer Line AsPC-1
The ERK phosphorylation inhibitory effect of test compounds was evaluated by measuring phosphorylation of threonine 202 (Thr202) and tyrosine 204 (Tyr204) of ERK located downstream of the KRAS signal by Cell ELISA.
AsPC-1 cells were seeded on 384-well plates at 36 μL/well to give 2.0×10^4 cells per well. As for the cell culture conditions, RPMI 1640 medium containing 10% fetal bovine serum was used in the presence of 5% CO2 at 37° C.
The next day, the test compounds (10 points having final concentrations in the range of 10 μM to 0.3 nM), trametinib (MEK inhibitor) of a final concentration of 1 μM as positive control and DMSO, which was the solvent for the test compounds, as negative control were diluted 100-fold with a fresh medium and were added at 4 μL per well. The cells were cultured overnight. After culturing, 30% glyoxal solution (40% glyoxal [from Nacalai Tesque] was diluted with PBS) was quickly added at 30 μL per well, and the plate was allowed to stand for 60 minutes at room temperature to thus immobilize the cells. Then, the plate was centrifuged to remove the supernatant (using a centrifugal dehydrator machine, the supernatant was removed by the same method hereinafter), and 0.1% Triton X-100-containing PBS was added at 20 μL per well. After allowing to stand for 10 minutes at room temperature, the supernatant was removed, and the same operation was further repeated. Next, 0.5% SDS-containing PBS was added at 20 μL per well, and after allowing to stand at room temperature for 30 minutes, the supernatant was removed. Subsequently, blocking solution (Intercept Blocking Buffer) was added at 20 μL per well, and the plate was allowed to stand for 1 hour at room temperature. The supernatant was removed, and an ERK (Thr202/Tyr204) phosphorylation antibody (Phospho-p44/42 MAPK (Erk 1/2) (Thr202/Tyr204) (D13.14.4E) XP Rabbit mAb; from Cell Signaling Technology) diluted 2,500-fold with blocking solution was added at 15 μL per well as a primary antibody. The plates were allowed to stand at 4° C. overnight.
The next day, the supernatant was removed. 0.05% Tween-20 (from Thermo Fisher Scientific)-containing PBS was added at 50 μL per well, and the supernatant was removed to thus wash each well. The washing was performed three times in total. After washing, Goat anti-Rabbit IgG H&L (IRDye 800CW) diluted 1,000-fold with blocking solution was added at 15 μL per well as a secondary antibody, and the plates were allowed to stand for 1 hour at room temperature. The supernatant was removed, and each well was washed three times with 0.05% Tween-20-containing PBS in the same manner as after the primary antibody reaction. After removing the supernatant, the plates were dried with air at room temperature for 3 hours or more, and the 800-nm fluorescent signals were measured with Aerius.
With the signaling value at the time of addition of DMSO taken as 100% and with the signaling value at the time of addition of 1 μM trametinib taken as 0%, the 50% inhibitory concentration values (IC50) were calculated by Sigmoid-Emax nonlinear regression analysis.

T1 sequence (P01116 1-188 isoform P01116-2 G12D): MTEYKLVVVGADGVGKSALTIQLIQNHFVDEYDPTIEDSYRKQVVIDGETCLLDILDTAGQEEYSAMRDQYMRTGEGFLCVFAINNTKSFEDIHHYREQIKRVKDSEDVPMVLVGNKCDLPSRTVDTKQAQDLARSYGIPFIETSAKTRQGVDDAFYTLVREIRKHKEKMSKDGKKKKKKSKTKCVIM

Row | SMILES | DC50 (KRAS G12D protein) | IC50 [1] | IC50 [2]
1 | COCC1(COc2nc(N(C)[C@H]3CCNC3)c3cc(C4CC4)c(-c4c(C)c(F)cc5[nH]ncc45)c(OCc4ccc(-c5cn([C@H](C(=O)N6C[C@H](O)C[C@H]6C(=O)N[C@@H](CO)c6ccc(-c7scnc7C)cc6)C(C)C)nn5)cc4)c3n2)CC1 (atropisomer, axis not shown) [Example 49] | 25 nM | 10 nM | 32 nM
2 | Cc1ncsc1-c1ccc([C@H](CO)NC(=O)[C@@H]2C[C@@H](O)CN2C(=O)[C@H](C(C)C)n2cc(-c3ccc(COc4c(-c5c(C)c(F)cc6[nH]ncc56)c(C5CC5)cc5c(N[C@@H]6CNC[C@@H]6O)nc(OC6CCOCC6)nc45)cc3)nn2)cc1 (atropisomer, axis not shown) [Example 7] | 40 nM | 23 nM | 9 nM
3 | Cc1ncsc1-c1ccc([C@H](CO)NC(=O)[C@@H]2C[C@@H](O)CN2C(=O)[C@H](C(C)C)n2cc(-c3ccc(COc4c(-c5c(C)c(F)cc6[nH]ncc56)c(C5CC5)cc5c(N[C@H]6CCNC6)cc(OC6CCOCC6)nc45)cc3)nn2)cc1 [Example 4] | 35 nM | 7 nM | 8 nM
4 | CO[C@H](CF)COc1nc(N(C)[C@H]2CCNC2)c2cc(C3CC3)c(-c3c(C)c(F)cc4[nH]ncc34)c(OCc3ccc(-c4cn([C@H](C(=O)N5C[C@H](O)C[C@H]5C(=O)N[C@@H](CO)c5ccc(-c6scnc6C)cc5)C(C)C)nn4)cc3)c2n1 (atropisomer, axis not shown) [Example 46] | 25 nM | 5 nM | 6 nM
5 | CCn1nccc1-c1ccc([C@H](CO)NC(=O)[C@@H]2C[C@@H](O)CN2C(=O)[C@H](C(C)C)n2cc(-c3ccc(COc4c(-c5c(C)c(F)cc6[nH]ncc56)c(C5CC5)cc5c(N(C)[C@H]6CCNC6)nc(OC[C@H](C)OC)nc45)cc3)nn2)nc1 (atropisomer, axis not shown) [Example 25] | 75 nM | 6 nM | 6 nM

Further lines, results first:

Row | DC50 (KRAS G12D protein) | IC50 [1] | IC50 [2] | SMILES
6 | 18 nM | 6 nM | 8 nM | Cc1ncsc1-c1ccc([C@H](CO)NC(=O)[C@@H]2C[C@@H](O)CN2C(=O)[C@H](C(C)C)n2cc(-c3ccc(COc4c(-c5c(C)c(F)cc6[nH]ncc56)c(C5CC5)cc5c(N(C)[C@H]6CCNC6)nc(OC[C@@H]6CCCO6)nc45)cc3)nn2)cc1 (atropisomer, axis not shown; (M)) [Example 10, (4R)-1-[(2S)-2-{4-[4-({[(7M) 6-cyclopropyl-7-(6-fluoro-5-methyl-1H-indazol-4-yl)-4-{methyl[(3S)-pyrrolidin-3-yl]amino}-2-{[(2S)-oxolan-2-yl]methoxy}quinazolin-8-yl}oxy}methyl)phenyl]-1H-1,2,3-triazol-1-yl}-3-methylbutanoyl]-4-hydroxy-N-{(1R)-2-hydroxy-1-[4-(4-methyl-1,3-thiazol-5-yl)phenyl]ethyl}-L-prolinamide]
7 | 33 nM | 24 nM | 45 nM | Cc1ncsc1-c1ccc([C@H](CO)NC(=O)[C@@H]2C[C@@H](O)CN2C(=O)[C@H](C(C)C)n2cc(-c3ccc(COc4c(-c5c(C)c(F)cc6[nH]ncc56)c(C5CC5)cc5c(N(C)[C@H]6CCNC6)nc(OCC(C)(C)F)nc45)cc3)nn2)cc1 (atropisomer, axis not shown) [Example 33]
8 | 38 nM | 16 nM | 15 nM | Cc1ncsc1-c1ccc([C@H](CO)NC(=O)[C@@H]2C[C@@H](O)CN2C(=O)[C@H](C(C)C)n2cc(-c3ccc(COc4c(-c5c(C)c(F)cc6[nH]ncc56)c(C5CC5)cc5c(N(C)[C@H]6CCNC6)nc(OC[C@@H](C)F)nc45)cc3)nn2)cc1 (atropisomer, axis not shown) [Example 48]
9 | 82 nM | 19 nM | 21 nM | Cc1ncsc1-c1ccc([C@H](CO)NC(=O)[C@@H]2C[C@@H](O)CN2C(=O)[C@H](C(C)C)n2cc(-c3ccc(COc4c(-c5c(C)c(F)cc6[nH]ncc56)c(C5CC5)cc5c(N(C)[C@H]6CCNC6)nc(OCC(C)(F)F)nc45)cc3)nn2)cc1 (atropisomer, axis not shown) [Example 36]
10 | 25 nM | 36 nM | 36 nM | Cc1ncsc1-c1ccc([C@H](CO)NC(=O)[C@@H]2C[C@@H](O)CN2C(=O)[C@H](C(C)C)n2cc(-c3ccc(COc4c(-c5c(C)c(F)cc6[nH]ncc56)c(C5CC5)cc5c(N(C)[C@H]6CCNC6)nc(OCCCF)nc45)cc3)nn2)cc1 (atropisomer, axis not shown) [Example 38]

Reference: patent publication US20250206751A1, “HETEROCYCLIC COMPOUND FOR INDUCING DEGRADATION OF G12D MUTANT KRAS PROTEIN” (Astellas Pharma Inc., priority 2022, published 2025)
